Holding throughout (format): cell-based
Assay [1] deals with p38 MAPK. Briefly: p38 MAPK activation in L6 cells. Conditions: GP 30, 60 μg/mL; AICAR 1 mM.
Description: (§2) The kinase activities were evaluated with specific antibodies. 1) control; 2) GP 30 μg/mL; 3) GP 60 μg/mL; 4) AICAR 1 mM.
(§3) L6 cells were differentiated into mature muscle cells in a low serum condition (2%, v/v). AICAR was used as an internal positive control. Once drug treatments were completed, cells were harvested, subjected to be lysated, and equal amount of proteins from each treatment was loaded on gels for analyzing AMPK and p38 MAPK activity levels (FIG. 7). Total AMPK protein was also immunoblotted to make sure that equal amount of protein was loaded on the gels.
We investigated whether GP is able to activate p38 MAPK in L6 cells.
Assay [2] deals with IKKβ. Briefly: IKKβ phosphorylation/activity in L6 myotube cells in the presence of tunicamycin. Conditions: GP 30, 60 μg/mL, AICAR 1 mM, insulin 100 nM.
Description: The cytosolic fraction was subjected on SDS-PAGE and blotted on nitrocellulose membrane. The membrane was incubated with anti-phospho-IKKβ (S^177/181), anti-phospho IRS1 (S^307), and anti-phospho SAPK/JNK (T^183) antibodies. 1) control cells with no treatment; 2) L6 cells treated with tunicamycin; 3) cells treated with 30 μg/mL GP in the presence of tunicamycin; 4) cells treated with 60 μg/mL GP in the presence of tunicamycin; 5) cells treated with 1 mM AICAR in the presence of tunicamycin; 6) cells incubated with 100 nM insulin in the presence of tunicamycin; 7) cells incubated with 100 nM insulin in the absence of tunicamycin.
The effect of GP on the phosphorylation of IKKβ in L6 myotube cells in the presence of tunicamycin was evaluated. The cytosolic fraction was subjected to SDS-PAGE and blotted on nitrocellulose membrane. The cytosolic fraction was subjected to SDS-PAGE and blotted on nitrocellulose membrane. The membrane was incubated with anti-phospho-IKKβ (S^177/181), anti-phospho IRS1 (S^307), and anti-phospho SAPK/JNK (T^183) antibodies.
Assay [3] has as its system L6 myotube cells. The assay is described as follows: 2-deoxyglucose uptake in L6 myotube cells. The note with it: high glucose; GP 60 μg/mL 2 hs, AICAR 1 mM 1 h, insulin 100 nM 20 min. The method, then: Examples 1-5 indicate that GP would increase glucose uptake regardless of the presence of insulin. To measure the glucose uptake in vitro, we performed 2-deoxyglucose uptake experiment. Since 2-deoxyglucose is not metabolized inside cells, radiolabeled 2-deoxyglucose was used for measuring glucose uptake experiment. Whether GP increases glucose uptake in L6 myotube cells was investigated. Prior to adding the materials, the cells were incubated in the presence of high glucose, since high glucose is known to obstruct glucose uptake in muscle […] (60 μg/mL), AICAR (1 mM) and insulin (100 nM) were incubated for 2 hs, 1 h and 20 min, respectively. Immediately after washing in Hepes buffered saline (HBS), the cells were incubated with 2-deoxyglucose (10 μM) in HBS for 10 min. Extensive washing was preceded before measuring radioactivity in scintillation counter. The uptake unit was estimated by the total counts of incubation.

For assay [4], the system named is ACC. The assay is described as follows: ACC Ser79 phosphorylation in L6 myotube cells. Conditions: GP 30, 60, 100 μg/mL; AICAR 1 mM; insulin 100 nM. As for the experimental part: (§1) 1) control; 2) GP 30 μg/mL; 3) GP 60 μg/mL; 4) GP 100 μg/mL; 5) AICAR 1 mM; 6) insulin 100 nM.
L6 myotube cells were treated with GP and AICAR.

Assay [5] has as its system AMPK. Briefly: AMPK phosphorylation (threonine 172) in L6 myotube cells, immunoblot. Conditions: 1 mM, high glucose. Background: In western blotting, separated proteins are transferred to a membrane and probed.
Description: L6 myotube cells were treated with 60 μg/mL of GP and incubated for the period of time indicated. Cells were lysed in lysis buffer and cytosolic proteins were resolved by SDS-PAGE, protein bands were transferred onto a nitrocellulose membrane, and phospho-AMPK was analyzed with specific antibodies. 1) control cells with no treatment; 2) cells treated with GP for 30 min; 3) cells treated with GP for 1 h; 3) cells with treated with GP for 2 hs.
as §2
We treated GP on L6 myotube cells to determine whether the treatment activates AMPK activity. Activation of AMPK was estimated by the increase in the phosphorylation on the threonine^172 residue of AMPK using specific antibodies. […] Cells were pretreated with high glucose (27.5 mM) to induce insulin resistance and to repress AMPK activation (Itani, 2003).
as §3
Assay [6] deals with AKT. Briefly: AKT phosphorylation/activity in L6 cells. Conditions: GP 30, 60, 100 μg/mL; AICAR 1 mM; insulin 100 nM. The method, then:
as §1
AKT (also called protein kinase B, PKB) phosphorylation is catalyzed by PI3K in insulin signal pathway. Whether GP treatment on the muscle cells affects AKT activity was tested.

The test system of assay [7] is JNK. Briefly: JNK activity in L6 myotube cells, phospho JNK immunoblot. The note with it: 2 hs; GP 30, 60 μg/mL; AICAR 1 mM; insulin 100 nM. The method, then:
L6 myotube cells were treated with GP for 2 hs. Cytosolic fraction was immunoblotted against phospho JNK antibodies. 1) control cells with no treatment; 2) GP 30 μg/ mL; 3) GP 60 μg/ mL; 4) AICAR 1 mM; 5) insulin 100 nM. We also investigated effects of GP treatment on JNK activity in L6 myotube cells.

As for `NC(=O)c1ncn([C@@H]2O[C@H](COP(=O)(O)O)[C@@H](O)[C@H]2O)c1N` [AICAR, 5′-phosphoribosyl-5-aminoimidazole-4-carboxamide], in assay [1], the “p38 MAPK activation” value was “exhibited p38 activation”. Further, the “Serine phosphorylation / activity of IKKβ” value in assay [2] was “slightly reduced”. For the same compound, in assay [3], the “Increase of 2-deoxyglucose uptake, on average” value came out at 42%. The “Phosphorylation of Ser79 of ACC” value in assay [4] is on record as “increased the phosphorylation of ACC but slightly less than that observed with 30 μg/mL of GP”. For the same compound, the “Phosphorylation level of AMPK” value in assay [5] is recorded as “comparable to that of 60 μg/mL of GP”. Also, in assay [6], the “AKT activity (phosphorylation)” value is “Neither GP nor AICAR appeared to affect AKT activity”. Besides, the JNK activity result in assay [7] was “not affected”.
On to “insulin: hormone used as positive marker/control for GLUT4 translocation and AKT activation”, for which, in assay [2], the “Serine phosphorylation / activity of IKKβ” value is given as “slightly reduced”. For the same compound, in assay [3], the “Increase of 2-deoxyglucose uptake, on average” value amounted to 40%. In addition, the “Phosphorylation of Ser79 of ACC” value in assay [4] is “did not affect the phosphorylation”. The “AKT activity (phosphorylation)” value in assay [6] is recorded as “activated AKT activity considerably”. Further, the JNK activity entry in assay [7] was “not affected”.
